Assay [1] has as its target ATP-dependent translocase ABCB1 (Homo sapiens, UniProt P08183). Nature of the assay: P-gp JC-1 efflux blockers potency – Jurkat-DNR cells, flow cytometry, follow-up, dose response (AID 489002). In kind it is functional. A general note: A flow cytometer gives signals particle by particle.
Assay [2] can be described thus: CMV-driven luciferase expression suppression in HEK293 – cell-based, luminescence, dry powder, counter-screen for Pax8 inhibitor project, dose response (AID 743020). The assay is classed as functional. On the technique in general: Counterscreens check selectivity or assay interference.
A short description of assay [3]: OVCAR4 cell viability loss – plate reader, dry powder, SA11, cytotoxicity control for PAX8 inhibitor project, dose response (AID 743150). In kind it is functional, cell-based. The conditions noted are these: OVCAR-4.
A short description of assay [4]: OVCAR8 cell viability loss – plate reader, dry powder samples, PAX8 project, dose response (AID 743197). The conditions noted are these: OVCAR-8. In kind it is functional, cell-based.
The nature of assay [5]: COV434 cell viability loss – plate reader, dry powder, SA7, cytotoxicity control for PAX8 inhibitor project, dose response (AID 743145). The assay is classed as functional, cell-based.
Assay [6] is described as follows: inhibitors acting on PAX2 in cells – cell-based, plate reader, dry powder samples, selectivity assay for PAX8 inhibitor project, dose response (AID 743048).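 Further: HEK293 cells carrying a WT1 promoter luciferase reporter driven by expressed Pax2; potency is for inhibition of Pax2 driven reporter signal.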 In kind it is functional.
A short description of assay [7]: OVCAR-3 cell viability loss – plate reader, dry powder samples, PAX8 inhibitor project, dose response (AID 743044). The assay is classed as functional, cell-based.
Assay [8] in a line: PAX5 cellular inhibition readout – cell-based, plate reader, dry powder samples, selectivity assay for PAX8 inhibitor project, dose response (AID 743047).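 Further: HEK293 cells carrying a Pax5 driven CD19 promoter luciferase reporter; potency of inhibitors that lower reporter luminescence.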 In kind it is functional.
Assay [9] is described as follows: PAX8-dependent cell viability loss – plate reader, dry powder, dose response (AID 743049). In kind it is functional, cell-based.
Another assay concerns the target Paired box protein Pax-8 (Homo sapiens, UniProt Q06710). In words: PAX8 transcriptional activity inhibition in RMG-I – RMG-I cells, luciferase, cherry-pick, dose response (AID 687027).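 Further: luciferase reporter driven by Pax8 target thyroperoxidase promoter measured by SteadyGlo luminescence.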 In kind it is functional, cell-based.
Assay [10] can be described thus: general cell-killing toxicity readout – plate reader, dry powder samples, cytotoxicity control for PAX8 inhibitor project, dose response (AID 743021). In kind it is functional, cell-based.
The nature of assay [11]: P. falciparum Dd2 growth inhibitors, dose response, SYBR Green, cherry-picked samples (AID 1159567). In kind it is functional, cell-based.
The nature of assay [12]: toxicity to human hepatoma HepG2 cells – cell-based, cherry-picked samples, cytotoxicity control, dose response (AID 1159577). The assay is classed as functional.
The nature of assay [13]: IGROV1 cell killing – plate reader, dry powder samples, PAX8 inhibitor project, dose response (AID 743043). The assay is classed as functional, cell-based. The following applies: IGROV-1.
Assay [14] is described as follows: toxicity toward immortalized ovarian surface epithelium – cell-based, plate reader, dry powder samples, cytotoxicity control for PAX8 inhibitor project, dose response (AID 743045). The assay is classed as functional.
Assay [15] in a line: A2780 cell killing – plate reader, dry powder samples, cytotoxicity control, dose response (AID 743046). The assay is classed as functional, cell-based.
Assay [16] can be described thus: reduced cellular PGC1a acetyl-lysine signal – cell-based, cherry-picked samples, dose response (AID 720514).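 Further: potency may reflect raised or lowered acetylation signal.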 In kind it is functional.
Assay [17] can be described thus: Late stage assay provider results from the probe development effort to identify inhibitors of the Plasmodium falciparum M18 Aspartyl Aminopeptidase (M18AAP): radiolabel-based cell-based dose response assay to identify compounds that inhibit P. falciparum growth in RBCs, Set 2.. The assay is classed as functional.
Assay [18] can be described thus: viability loss in A549 lung cells – cell-based, 24 h, CellTiter-Glo luminescence, cherry-picks, cytotoxicity control, dose response (AID 1053115). In kind it is functional. The following applies: A549, 24 h. Background: ATP-based viability assays read luminescence as a measure of living cells.
Assay [19] deals with Metabotropic glutamate receptor 5 (Rattus norvegicus, UniProt P31424). In words: Identification of a glycine sulfonamide based non-MPEP site positive allosteric potentiator (PAM) of mGlu5 (calcium_assay). In kind it is functional.
Another assay concerns the target Estrogen receptor beta (Homo sapiens, UniProt Q92731).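 Further: recombinant ER-beta bound to coactivator SRC1 peptide in presence of estradiol agonist; inhibitors block coactivator peptide binding and lower the FRET signal.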
Assay [20] has as its target T1, Carboxy-terminal domain RNA polymerase II polypeptide A small phosphatase 1 (Homo sapiens, UniProt Q9GZU7).
T1 sequence (Q9GZU7 whole entry): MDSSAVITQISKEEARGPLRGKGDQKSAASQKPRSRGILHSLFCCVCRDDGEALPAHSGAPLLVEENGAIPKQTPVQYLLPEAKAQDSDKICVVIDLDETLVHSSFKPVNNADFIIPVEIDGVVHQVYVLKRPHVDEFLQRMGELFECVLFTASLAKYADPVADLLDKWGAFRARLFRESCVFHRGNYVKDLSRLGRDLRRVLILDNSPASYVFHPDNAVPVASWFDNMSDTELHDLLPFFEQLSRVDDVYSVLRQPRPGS
In words: CTDSP1 inhibitors, concentration-response, biochemical, absorbance readout, ultra-high-throughput screen actives (AID 540297). The assay is classed as functional.

In assay [21] the target is Induced myeloid leukemia cell differentiation protein Mcl-1 (Homo sapiens, UniProt Q07820). The assay is classed as functional.
Assay [22] is described as follows: IC50 of Artemis nuclease activity blockers – biochemical, fluorescence intensity, dose response (AID 720701).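 Further: Artemis endonuclease enzyme.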 The assay is classed as functional.

By EC50 is commonly meant the concentration needed to bring the measured effect to its halfway point. Usually AC50 stands for the concentration giving half of the maximal activity seen. For orientation: IC50 means the midpoint of a concentration-inhibition curve.

Active and inactive are the calls of the source. A value given as a limit tells only on which side of the number the result lay.

Sequence of Paired box protein Pax-8 (Q06710 whole entry): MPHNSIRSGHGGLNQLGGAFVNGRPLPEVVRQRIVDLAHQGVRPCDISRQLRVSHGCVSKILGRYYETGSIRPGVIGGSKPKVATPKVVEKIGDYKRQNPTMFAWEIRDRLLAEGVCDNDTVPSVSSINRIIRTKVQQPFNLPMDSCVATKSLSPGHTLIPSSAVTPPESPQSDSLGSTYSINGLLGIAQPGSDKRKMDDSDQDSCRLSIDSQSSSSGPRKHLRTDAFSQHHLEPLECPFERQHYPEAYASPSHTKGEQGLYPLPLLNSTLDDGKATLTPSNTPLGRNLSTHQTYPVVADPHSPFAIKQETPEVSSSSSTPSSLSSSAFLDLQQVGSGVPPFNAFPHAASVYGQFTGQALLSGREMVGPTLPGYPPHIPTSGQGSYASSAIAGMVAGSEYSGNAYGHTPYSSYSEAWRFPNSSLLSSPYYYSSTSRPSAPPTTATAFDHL
Sequence of Metabotropic glutamate receptor 5 (P31424 whole entry): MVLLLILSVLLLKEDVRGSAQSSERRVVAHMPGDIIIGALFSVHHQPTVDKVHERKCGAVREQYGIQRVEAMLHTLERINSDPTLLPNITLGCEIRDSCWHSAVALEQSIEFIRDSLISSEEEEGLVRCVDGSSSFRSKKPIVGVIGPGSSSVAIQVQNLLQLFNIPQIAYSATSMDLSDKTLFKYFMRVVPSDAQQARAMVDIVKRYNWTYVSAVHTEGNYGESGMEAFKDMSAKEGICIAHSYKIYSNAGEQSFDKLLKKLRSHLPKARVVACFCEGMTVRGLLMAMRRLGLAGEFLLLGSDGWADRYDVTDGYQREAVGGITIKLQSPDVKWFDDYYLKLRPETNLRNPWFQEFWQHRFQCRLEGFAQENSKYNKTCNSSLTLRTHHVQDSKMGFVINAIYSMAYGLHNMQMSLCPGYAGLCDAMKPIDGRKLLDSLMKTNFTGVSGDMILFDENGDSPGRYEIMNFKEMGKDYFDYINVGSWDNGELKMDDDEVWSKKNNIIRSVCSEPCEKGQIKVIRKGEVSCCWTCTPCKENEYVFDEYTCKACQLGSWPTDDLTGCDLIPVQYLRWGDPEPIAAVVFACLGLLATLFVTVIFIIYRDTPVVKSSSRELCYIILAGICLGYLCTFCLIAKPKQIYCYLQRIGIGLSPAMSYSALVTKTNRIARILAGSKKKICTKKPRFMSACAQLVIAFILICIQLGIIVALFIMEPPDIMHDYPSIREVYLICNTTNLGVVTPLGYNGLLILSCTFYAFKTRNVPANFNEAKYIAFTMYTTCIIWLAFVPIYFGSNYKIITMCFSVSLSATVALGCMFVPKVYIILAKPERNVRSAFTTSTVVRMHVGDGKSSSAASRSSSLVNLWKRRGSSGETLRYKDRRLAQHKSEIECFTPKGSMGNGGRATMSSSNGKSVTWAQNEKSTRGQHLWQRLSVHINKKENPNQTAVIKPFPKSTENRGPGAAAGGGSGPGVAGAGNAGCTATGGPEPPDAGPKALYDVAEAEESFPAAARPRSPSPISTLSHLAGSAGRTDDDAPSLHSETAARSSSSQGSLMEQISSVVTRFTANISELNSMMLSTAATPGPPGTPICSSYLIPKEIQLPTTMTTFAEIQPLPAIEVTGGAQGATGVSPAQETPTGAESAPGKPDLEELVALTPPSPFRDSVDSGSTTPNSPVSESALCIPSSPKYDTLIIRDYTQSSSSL
Sequence of Estrogen receptor beta (Q92731 whole entry, the tested form may be a part): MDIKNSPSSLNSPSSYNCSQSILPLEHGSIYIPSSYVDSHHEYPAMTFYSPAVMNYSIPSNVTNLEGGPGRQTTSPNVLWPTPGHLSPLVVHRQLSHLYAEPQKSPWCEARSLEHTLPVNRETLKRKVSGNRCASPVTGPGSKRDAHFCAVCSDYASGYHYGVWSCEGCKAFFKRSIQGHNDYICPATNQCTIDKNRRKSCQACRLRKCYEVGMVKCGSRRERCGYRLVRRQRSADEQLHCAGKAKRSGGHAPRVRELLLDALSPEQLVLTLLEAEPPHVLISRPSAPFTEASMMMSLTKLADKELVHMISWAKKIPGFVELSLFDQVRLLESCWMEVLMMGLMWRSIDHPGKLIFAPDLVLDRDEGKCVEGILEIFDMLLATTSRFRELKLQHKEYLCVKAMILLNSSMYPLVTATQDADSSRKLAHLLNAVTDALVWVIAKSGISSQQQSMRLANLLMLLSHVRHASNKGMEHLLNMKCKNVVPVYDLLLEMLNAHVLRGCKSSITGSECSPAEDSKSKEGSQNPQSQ
Sequence of Induced myeloid leukemia cell differentiation protein Mcl-1 (Q07820 whole entry): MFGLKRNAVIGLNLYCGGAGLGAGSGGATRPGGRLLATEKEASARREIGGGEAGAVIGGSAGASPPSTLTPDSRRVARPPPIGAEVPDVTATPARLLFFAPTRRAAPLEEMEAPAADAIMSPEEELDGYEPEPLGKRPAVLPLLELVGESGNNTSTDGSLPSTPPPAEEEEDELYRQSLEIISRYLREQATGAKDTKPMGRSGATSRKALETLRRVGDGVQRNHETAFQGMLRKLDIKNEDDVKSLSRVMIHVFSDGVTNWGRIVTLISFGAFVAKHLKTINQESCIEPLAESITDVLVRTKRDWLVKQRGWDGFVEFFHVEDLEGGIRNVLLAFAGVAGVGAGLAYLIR
Sequence of ATP-dependent translocase ABCB1 (P08183 whole entry): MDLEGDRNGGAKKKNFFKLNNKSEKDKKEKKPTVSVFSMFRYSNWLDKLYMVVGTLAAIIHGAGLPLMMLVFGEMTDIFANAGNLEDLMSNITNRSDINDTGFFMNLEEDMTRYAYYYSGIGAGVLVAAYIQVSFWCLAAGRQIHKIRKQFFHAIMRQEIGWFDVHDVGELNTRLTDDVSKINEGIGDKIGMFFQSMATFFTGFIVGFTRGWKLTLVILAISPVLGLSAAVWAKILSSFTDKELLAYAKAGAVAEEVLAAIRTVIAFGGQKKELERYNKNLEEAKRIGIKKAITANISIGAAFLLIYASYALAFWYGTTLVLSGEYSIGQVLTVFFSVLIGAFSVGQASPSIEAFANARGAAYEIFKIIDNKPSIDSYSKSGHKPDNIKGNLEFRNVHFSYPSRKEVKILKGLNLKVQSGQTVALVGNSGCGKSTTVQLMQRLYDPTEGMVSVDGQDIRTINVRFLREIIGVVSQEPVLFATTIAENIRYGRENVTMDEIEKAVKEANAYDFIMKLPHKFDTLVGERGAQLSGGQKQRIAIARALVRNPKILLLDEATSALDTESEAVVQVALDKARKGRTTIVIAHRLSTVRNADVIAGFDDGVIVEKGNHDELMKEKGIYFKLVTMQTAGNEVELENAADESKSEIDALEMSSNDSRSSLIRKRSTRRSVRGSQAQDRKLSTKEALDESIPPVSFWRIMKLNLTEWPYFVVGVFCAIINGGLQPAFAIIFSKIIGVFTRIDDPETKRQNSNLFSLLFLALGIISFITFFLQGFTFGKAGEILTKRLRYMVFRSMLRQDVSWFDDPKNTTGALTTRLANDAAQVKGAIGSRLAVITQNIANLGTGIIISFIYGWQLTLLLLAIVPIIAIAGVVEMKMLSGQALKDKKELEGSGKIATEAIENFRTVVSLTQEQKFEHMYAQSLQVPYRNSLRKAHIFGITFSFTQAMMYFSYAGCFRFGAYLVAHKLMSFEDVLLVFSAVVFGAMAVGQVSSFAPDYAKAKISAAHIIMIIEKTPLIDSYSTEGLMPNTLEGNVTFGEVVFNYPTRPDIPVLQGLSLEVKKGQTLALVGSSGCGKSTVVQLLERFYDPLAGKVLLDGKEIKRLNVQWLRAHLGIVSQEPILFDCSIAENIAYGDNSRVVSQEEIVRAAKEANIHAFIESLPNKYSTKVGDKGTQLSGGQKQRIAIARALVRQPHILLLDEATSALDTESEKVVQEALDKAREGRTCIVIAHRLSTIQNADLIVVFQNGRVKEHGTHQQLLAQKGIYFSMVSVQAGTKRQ

Regarding `Cc1ccc(-c2cc3nc(-c4ccco4)cc(N4CCN(Cc5ccoc5)CC4)n3n2)cc1`, in assay [1], the EC50 came to 0.01411 µM.

Take `Cc1ccc(S(=O)(=O)Nc2ccc3c(c2)C(=O)N([C@H](C)CO)C[C@@H](C)[C@H](CN(C)Cc2ccc(C(F)(F)F)cc2)OCCCC[C@H](C)O3)cc1`: the AC50 is 29.4 µM (active) in assay [2]; 44.2 µM (active) in [3]; 14.9 µM (active) in assay [4]; 35.5 µM (active) in assay [5]; 22 µM (active) in [6]; 27 µM (active) in assay [7]. Moreover, the AC50 is 22.1 µM (active) in [8], 39.7 µM (active) in assay [9], 3.93 µM (active) on Paired box protein Pax-8 and 31 µM (active) in assay [10].

Consider `COc1ccc(C#Cc2ccc([C@H]3[C@@H](CO)N4CCCCN(C(=O)Nc5cccc(F)c5)C[C@H]34)cc2)cc1`, for which the AC50 in assay [11] is 1.28 µM (active); in assay [4], > 70 µM (inactive); in [7] it was 10 µM (active); in assay [12] it was 7.31 µM (active); in assay [13], 21.1 µM (active); in assay [14] it was 32.3 µM (active). In addition, the values for the AC50 (on Paired box protein Pax-8; in assay [10]; in [15]) were 10.9 µM (active), 32.1 µM (active) and 12.2 µM (active), respectively.

`COc1cc(CN2C[C@@H]3N[C@H](C2)[C@@H]3c2ccc(-c3cccc(OC)c3)cc2)cc(OC)c1`: the AC50 in assay [16] is 9.18 µM (active).

Turning to `O=c1ccn(CCNc2c3ccccc3nc3ccccc23)cc1OCc1ccccc1`, the IC50 in assay [17] was 4.7 µM (active).

Turning to `OC[C@@H]1Nc2ccc(-c3cccc(F)c3)cc2[C@@H]2[C@H]1CCN2Cc1ccc(F)cc1`, the AC50 in assay [11] was 5.68 µM (active); in assay [12] it was 17.8 µM (active); in assay [18] it was 52 µM (active).

As for `CC(C(=O)Nc1cc(F)cc(C#N)c1)N(c1ccccc1Cl)S(C)(=O)=O` (stereo not given), the EC50 in [19] was found to be 5.45 µM.

Take `Cc1nc2c(c(=O)n1CCC1=CCCCC1)c1nc3ccccc3nc1n2/N=C/c1ccco1`: the half-inhibitory concentration (IC50) against Estrogen receptor beta is > 50 µM (not active); in [20], 10.1 µM (active); in assay [21], 4.9 µM (active); in [22], 18.5 µM (active).

Values taken from ChEMBL document CHEMBL1201862, “PubChem BioAssay data set” (2004).
